The test system of this assay is L1210 leukemia ip in BDF1 mice, survival T/C. Kind of assay: NCI In Vivo Anticancer Drug Screen. Data for tumor model L1210 Leukemia (intraperitoneal) in B6D2F1 (BDF1) mice. Particulars: endpoint: mean survival time, higher = longer survival. Summed up: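 In this screen, tumor-bearing mice given compound are compared to those given vehicle, and their survival values are reported as a treated-to-control quotient.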

Setting [1] is: dose: 100.0 mg/kg/injection, schedule: Q04DX002 (ip), vehicle: saline with Tween-80.
[2] abbreviates: dose: 200.0 mg/kg/injection, schedule: Q04DX002 (ip), vehicle: saline with Tween-80.
[3] abbreviates: dose: 400.0 mg/kg/injection, schedule: Q04DX002 (ip), vehicle: saline with Tween-80.
[4] abbreviates: dose: 100.0 mg/kg/injection, schedule: Q01DX001 (ip), vehicle: saline.
[5] abbreviates: dose: 200.0 mg/kg/injection, schedule: Q01DX001 (ip), vehicle: saline.
[6] abbreviates: dose: 400.0 mg/kg/injection, schedule: Q01DX001 (ip), vehicle: saline.
Where [7] appears, read: dose: 12.5 mg/kg/injection, schedule: Q01DX009 (ip), vehicle: saline.
The mark [8] stands for this setting: dose: 25.0 mg/kg/injection, schedule: Q01DX009 (ip), vehicle: saline.
[9] abbreviates: dose: 100.0 mg/kg/injection, schedule: Q04DX003 (ip), vehicle: other.
Setting [10] is: dose: 200.0 mg/kg/injection, schedule: Q04DX003 (ip), vehicle: other.
Setting [11] is: dose: 100.0 mg/kg/injection, schedule: Q01DX009 (ip), vehicle: saline.
Setting [12] is: dose: 100.0 mg/kg/injection, schedule: Q04DX003 (ip), vehicle: saline.
Setting [13] is: dose: 200.0 mg/kg/injection, schedule: Q01DX009 (ip), vehicle: saline.
[14] abbreviates: dose: 200.0 mg/kg/injection, schedule: Q04DX003 (ip), vehicle: saline.
Where [15] appears, read: dose: 400.0 mg/kg/injection, schedule: Q01DX009 (ip), vehicle: saline.
Setting [16] is: dose: 400.0 mg/kg/injection, schedule: Q04DX003 (ip), vehicle: saline.

Several values for one entry are separate records, joined by “and”; a condition that tells them apart may be missing. Equal values may be shown once. Inconclusive results and toxic doses are left out.

The text below walks through data of PubChem BioAssay AID248 (DTP/NCI, 2004).

Consider `Oc1ccccc1/C=N\Sc1ccc(Br)cc1`, for which the T/C under setting [1] was 112 % of control, the T/C under setting [2] was 91 % of control and the T/C under setting [3] was 94 % of control.

Consider `CC1=CCCC(C)C12CCC(C(C)(C)O)C2` (centres undefined), for which the T/C runs as follows: (dose: 50.0 mg/kg/injection, schedule: Q01DX009 (ip), vehicle: other) 104 % of control; (dose: 100.0 mg/kg/injection, schedule: Q01DX009 (ip), vehicle: other) 98 % of control; (dose: 100.0 mg/kg/injection, schedule: Q04DX003 (ip), vehicle: saline sonified) 103 % of control; (dose: 200.0 mg/kg/injection, schedule: Q01DX009 (ip), vehicle: other) 100 % of control; (dose: 200.0 mg/kg/injection, schedule: Q04DX003 (ip), vehicle: saline sonified) 107 % of control.

Turning to `C#CC1(O)CCCCC1`, the T/C is 108 % of control (dose: 100.0 mg/kg/injection, schedule: Q01DX009 (ip), vehicle: Klucel (hydroxypropylcellulose) (HPC)); 94 % of control (dose: 100.0 mg/kg/injection, schedule: Q04DX003 (ip), vehicle: Klucel (hydroxypropylcellulose) (HPC)); 97 % of control (dose: 200.0 mg/kg/injection, schedule: Q01DX009 (ip), vehicle: Klucel (hydroxypropylcellulose) (HPC)); 100 % of control (dose: 200.0 mg/kg/injection, schedule: Q04DX003 (ip), vehicle: Klucel (hydroxypropylcellulose) (HPC)); 97 % of control (dose: 400.0 mg/kg/injection, schedule: Q01DX009 (ip), vehicle: Klucel (hydroxypropylcellulose) (HPC)); 96 % of control (dose: 400.0 mg/kg/injection, schedule: Q04DX003 (ip), vehicle: Klucel (hydroxypropylcellulose) (HPC)).

As for `CC(C)CC(C)(CC(C)C)C(=O)O`, the T/C by setting is: under setting [4], 100 % of control; under setting [5], 100 % of control; under setting [6], 102 % of control.

As to `Cc1ccc(C(=O)N2CCCCC2)c[n+]1C`, the T/C is, setting by setting: under setting [4], 104 % of control; under setting [5], 100 % of control; under setting [6], 105 % of control.

As for `CC(C)C(Cl)c1ccccc1` (centres undefined), the T/C by setting is: (dose: 50.0 mg/kg/injection, schedule: Q01DX009 (ip), vehicle: saline with Tween-80) 87 % of control; (dose: 100.0 mg/kg/injection, schedule: Q01DX009 (ip), vehicle: saline with Tween-80) 91 % of control; (dose: 200.0 mg/kg/injection, schedule: Q01DX009 (ip), vehicle: saline with Tween-80) 87 % of control.

Consider `CC(C)(C)NCCCN1CC1(C)C` (centres undefined), for which the T/C reads like this: (dose: 6.25 mg/kg/injection, schedule: Q01DX009 (ip), vehicle: saline) 90 % of control; (dose: 6.25 mg/kg/injection, schedule: Q04DX003 (ip), vehicle: saline) 103 % of control; under setting [7], 93 % of control; (dose: 12.5 mg/kg/injection, schedule: Q04DX003 (ip), vehicle: saline) 114 % of control; under setting [8], 93 % of control and 121 % of control; (dose: 25.0 mg/kg/injection, schedule: Q04DX003 (ip), vehicle: saline) 117 % of control. Also, the T/C under setting [4] was 110 % of control.

For the molecule `N#CCCn1ccc2ccccc21`, the T/C under setting [9] is 96 % of control; the T/C under setting [10] was 104 % of control; the T/C (dose: 400.0 mg/kg/injection, schedule: Q04DX003 (ip), vehicle: other) is 106 % of control.

As for `NC(=O)C(N)Cc1ccc(O)c(O)c1` (centres undefined), the T/C was 107 % of control under setting [11]; 102 % of control under setting [12]; 102 % of control under setting [13]; 98 % of control under setting [14]; 109 % of control under setting [15]; 115 % of control under setting [16]. Moreover, the T/C was 103 % of control and 114 % of control (dose: 800.0 mg/kg/injection, schedule: Q01DX009 (ip), vehicle: saline); 104 % of control (dose: 1600.0 mg/kg/injection, schedule: Q01DX009 (ip), vehicle: saline).

Turning to `CCCC(=O)NN=C(C)C`, the T/C was 109 % of control under setting [7]; 109 % of control under setting [8]; 95 % of control (dose: 50.0 mg/kg/injection, schedule: Q01DX009 (ip), vehicle: saline).

`CCCc1nc2ccccc2[nH]1`: the T/C was 96 % of control (dose: 100.0 mg/kg/injection, schedule: Q04DX003 (ip), vehicle: saline with Tween-80) and 100 % of control (dose: 200.0 mg/kg/injection, schedule: Q04DX003 (ip), vehicle: saline with Tween-80).

As for `CCCCCCCCCCCCOCCOCCOCC(N)=O`, the T/C reads like this: under setting [11], 104 % of control; under setting [12], 97 % of control; under setting [13], 100 % of control; under setting [14], 109 % of control; under setting [15], 96 % of control; under setting [16], 97 % of control.

For `CN(C)C=Nc1ccc(Cl)cc1`, the T/C is 93 % of control (dose: 25.0 mg/kg/injection, schedule: Q01DX001 (ip), vehicle: other); 101 % of control (dose: 50.0 mg/kg/injection, schedule: Q01DX001 (ip), vehicle: other); 100 % of control (dose: 50.0 mg/kg/injection, schedule: Q01DX001 (ip), vehicle: saline); 90 % of control (dose: 50.0 mg/kg/injection, schedule: Q04DX003 (ip), vehicle: other); 103 % of control and 91 % of control (dose: 100.0 mg/kg/injection, schedule: Q01DX001 (ip), vehicle: other); 102 % of control under setting [9]. For the same molecule, under setting [10], the T/C is 101 % of control.

In the case of `CC1(C)CCC(C)(C)C2CC3C(CC21)C(C)(C)CCC3(C)C` (centres undefined), the T/C under setting [4] was 109 % of control, the T/C under setting [5] was 112 % of control and the T/C under setting [6] was 100 % of control.

For the molecule `CCCCC/C(C)=C1\Oc2c(C)c(C)cc(C)c2C1=O`, the T/C is 100 % of control under setting [1], 107 % of control under setting [2] and 114 % of control under setting [3].

Turning to `O=NN(CCCl)C(=O)Nc1ccc2oc(=O)c3ccccc3c2c1`, the T/C by setting is: (dose: 1.25 mg/kg/injection, schedule: Q01DX001 (ip), vehicle: Klucel (hydroxypropylcellulose) (HPC)) 123 % of control; (dose: 2.5 mg/kg/injection, schedule: Q01DX001 (ip), vehicle: Klucel (hydroxypropylcellulose) (HPC)) 105 % of control; (dose: 5.0 mg/kg/injection, schedule: Q01DX001 (ip), vehicle: Klucel (hydroxypropylcellulose) (HPC)) 112 % of control; (dose: 10.0 mg/kg/injection, schedule: Q01DX001 (ip), vehicle: carboxymethylcellulose (CMC)) 150 % of control; (dose: 35.0 mg/kg/injection, schedule: Q01DX001 (ip), vehicle: carboxymethylcellulose (CMC)) 164 % of control; (dose: 150.0 mg/kg/injection, schedule: Q01DX001 (ip), vehicle: carboxymethylcellulose (CMC)) 120 % of control. In addition, the T/C by setting is: (dose: 177.0 mg/kg/injection, schedule: Q01DX009 (ip), vehicle: carboxymethylcellulose (CMC)) 101 % of control; (dose: 266.0 mg/kg/injection, schedule: Q01DX009 (ip), vehicle: carboxymethylcellulose (CMC)) 95 % of control; (dose: 400.0 mg/kg/injection, schedule: Q01DX009 (ip), vehicle: carboxymethylcellulose (CMC)) 92 % of control; (dose: 600.0 mg/kg/injection, schedule: Q01DX001 (ip), vehicle: carboxymethylcellulose (CMC)) 152 % of control; (dose: 600.0 mg/kg/injection, schedule: Q01DX009 (ip), vehicle: carboxymethylcellulose (CMC)) 87 % of control.

On to `Cc1cc2c(=S)nc(N)[nH]c2nc1C`, for which the T/C by setting is: (dose: 100.0 mg/kg/injection, schedule: Q01DX Z (ip), vehicle: methylcellulose (MC)) 105 % of control; (dose: 200.0 mg/kg/injection, schedule: Q01DX Z (ip), vehicle: methylcellulose (MC)) 103 % of control.

For `COC(=O)C(C)(C)Br`, the T/C is, setting by setting: (dose: 100.0 mg/kg/injection, schedule: Q01DX009 (ip), vehicle: saline sonified) 94 % of control; (dose: 200.0 mg/kg/injection, schedule: Q01DX009 (ip), vehicle: saline sonified) 100 % of control; (dose: 400.0 mg/kg/injection, schedule: Q01DX009 (ip), vehicle: saline sonified) 100 % of control.

Turning to `C=CCNC(=S)C(C(=O)OC)C(=O)OC`, the T/C by setting is: under setting [12], 103 % of control; under setting [14], 100 % of control; under setting [16], 100 % of control.
